Patent US20100292214A1, “Compounds with Antiparasitic Activity, Applications thereof to the Treatment of Infectious Diseases Caused by Apicomplexans” (commissariat a l'Energie Atomique, priority 2007, published 2010)
Structures can show the parent of a compound that is named as a salt. Where two headings read alike, the source gives them in different places.

Key:
[1] = tested on: asynchronous 3D7 chloroquine-sensitive P. falciparum infected red blood cells; experiment: Labeled hypoxanthine incorporation assay (in vitro anti-malarial activity); assay type: cell-based; settings: Plasmodium falciparum, 3D7, Erythrocyte, read-out: IC50 assessed on Plasmodium Falciparum
[2] = tested on: Toxoplasma gondii RH-β1 strain; experiment: microbe, parasite or virus in culture; assay type: cell-based; settings: Toxoplasma gondii, read-out: IC50 assessed on Toxoplama Gondii
[3] = 3D7 chloroquine-sensitive strain, infected RBC, 48 h contact, [3H]-hypoxanthine incorporation, two independent experiments in duplicates

| SMILES | IC50 [1, 3] [µM] | IC50 [2] [µM] | IC50 [1] [µM] |
| --- | --- | --- | --- |
| COc1cccc(CN(CCCOC(=O)N2CCC(n3c(=O)[nH]c4ccccc43)CC2)Cc2ccccc2)c1 [Compound 149, 3-(benzyl(3-methoxybenzyl)amino)propyl 4-(2-oxo-2,3-dihydro-1H-benzo[d]imidazol-1-yl)piperidine-1-carboxylate hydrochloride] | 0.588 | 3.5 | – |
| O=C(OCCN(Cc1ccccc1)Cc1ccc(Cl)cc1)N1CCC(n2c(=O)[nH]c3ccccc32)CC1 [Compound 150, 2-(benzyl(4-chlorobenzyl)amino)ethyl 4-(2-oxo-2,3-dihydro-1H-benzo[d]imidazol-1-yl)piperidine-1-carboxylate] | 2.59 | 1.5 | – |
| O=C(OC[C@H](Cc1ccccc1)N(Cc1ccccc1)Cc1ccccc1)N1CCC(Nc2ccccc2)CC1 [Compound 152, (S)-2-(dibenzylamino)-3-phenylpropyl 4-(phenylamino)piperidine-1-carboxylate] | – | 3.8 | 0.922 |
| C[C@@H](COC(=O)N1CCC(n2c(-c3ccccc3)nc3ccccc32)CC1)N(Cc1ccccc1)Cc1ccccc1 [Compound 153, (S)-2-(dibenzylamino)propyl 4-(2-phenyl-1H-benzo[d]imidazol-1-yl)piperidine-1-carboxylate] | 2.33 | 3.75 | – |
| C[C@@H](COC(=O)N1CCC(N(c2ccccc2)S(=O)(=O)c2ccc(F)cc2)CC1)N(Cc1ccccc1)Cc1ccccc1 [Compound 155, (S)-2-(dibenzylamino)propyl 4-(N-phenyl-4-fluorophenylsulfonamido)piperidine-1-carboxylate] | 0.617 | 0.8 | – |
| COc1ccc(S(=O)(=O)N(c2ccccc2)C2CCN(C(=O)OC[C@H](C)N(Cc3ccccc3)Cc3ccccc3)CC2)cc1 [Compound 156, (S)-2-(dibenzylamino)propyl 4-(N-phenyl-4-methoxyphenylsulfonamido)piperidine-1-carboxylate] | 0.783 | 4 | – |
| C[C@@H](COC(=O)N1CCC(N(c2ccccc2)S(=O)(=O)c2cccs2)CC1)N(Cc1ccccc1)Cc1ccccc1 [Compound 159, (S)-2-(dibenzylamino)propyl 4-(N-phenylthiophen-2-ylsulfonamido)piperidine-1-carboxylate] | 0.861 | 1 | – |
| C[C@@H](COC(=O)N1CCC(N(c2ccccc2)S(=O)(=O)c2cccc3cccnc23)CC1)N(Cc1ccccc1)Cc1ccccc1 [Compound 160, (S)-2-(dibenzylamino)propyl 4-(N-phenylquinolin-8-ylsulfonamido)piperidine-1-carboxylate] | 1.06 | 2.7 | – |
| C[C@@H](COC(=O)N1CCC(N(C(=S)Nc2ccccc2)c2ccccc2)CC1)N(Cc1ccccc1)Cc1ccccc1 [Compound 165, (S)-2-(dibenzylamino)propyl 4-(1,3-diphenylthioureido)piperidine-1-carboxylate] | 1.25 | 3 | – |
| Cc1ccccc1S(=O)(=O)N(c1ccccc1)C1CCN(C(=O)OC[C@H](C)N(Cc2ccccc2)Cc2ccccc2)CC1 [Compound 167, (S)-2-(dibenzylamino)propyl 4-(N-phenyl-2-methylphenylsulfonamido)piperidine-1-carboxylate] | 0.338 | 3.9 | – |
| Cc1cccc(S(=O)(=O)N(c2ccccc2)C2CCN(C(=O)OC[C@H](C)N(Cc3ccccc3)Cc3ccccc3)CC2)c1 [Compound 168, (S)-2-(dibenzylamino)propyl 4-(N-phenyl-3-methylphenylsulfonamido)piperidine-1-carboxylate] | 0.483 | 2.9 | – |
| C[C@@H](COC(=O)N1CCC(N(c2ccccc2)S(=O)(=O)c2cccc(C(F)(F)F)c2)CC1)N(Cc1ccccc1)Cc1ccccc1 [Compound 169, (S)-2-(dibenzylamino)propyl 4-(N-phenyl-3-(trifluoromethyl)phenylsulfonamido)piperidine-1-carboxylate] | 0.553 | 3.2 | – |
| C[C@@H](COC(=O)N1CCC(N(c2ccccc2)S(=O)(=O)c2cccc3c(N(C)C)cccc23)CC1)N(Cc1ccccc1)Cc1ccccc1 [Compound 172, (S)-2-(dibenzylamino)propyl 4-(N-phenyl-(5-dimethylamino)naphthalen-1-ylsulfonamido)piperidine-1-carboxylate] | 0.314 | 0.212 | – |
| Oc1cc(Cl)ccc1Oc1ccc(Cl)cc1Cl [Triclosan, reference compound] | – | 0.32 | 1.55 |
